Legend:
Assay in all cases: relative viability (nuclei count vs DMSO), 5 days (fraction); higher = more cells survive
BMX-IN-1 + Palbociclib = compound: C=CC(=O)Nc1cc(-n2c(=O)ccc3cnc4ccc(-c5ccc(NS(C)(=O)=O)cc5)cc4c32)ccc1C [BMX-IN-1] + CC(=O)c1c(C)c2cnc(Nc3ccc(N4CCNCC4)cn3)nc2n(C2CCCC2)c1=O [Palbociclib] (partner 0.5 µM)
In short: (§1)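 Medians of duplicate plates are given as relative viability. That measure is the nuclei count in treated wells divided by the count in vehicle wells. Counts were taken on 4× images of lung cancer cell lines in 1536-well plates, 5 days after pin-tool dosing the day after seeding with one drug alone or a fixed anchor-drug dose plus five library-drug doses (not always all listed) in √10 steps.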

Ibrutinib + Tozasertib = compound: C=CC(=O)N1CCC[C@@H](n2nc(-c3ccc(Oc4ccccc4)cc3)c3c(N)ncnc32)C1 [Ibrutinib] + Cc1cc(Nc2cc(N3CCN(C)CC3)nc(Sc3ccc(NC(=O)C4CC4)cc3)n2)n[nH]1 [Tozasertib] (partner 0.1 µM)
In short: as §1

Ibrutinib + Vorinostat = compound: C=CC(=O)N1CCC[C@@H](n2nc(-c3ccc(Oc4ccccc4)cc3)c3c(N)ncnc32)C1 [Ibrutinib] + O=C(CCCCCCC(=O)Nc1ccccc1)NO [Vorinostat] (partner 1 µM)
In short: as §1

PAC-1 + Phenformin = compound: C=CCc1cccc(/C=N/NC(=O)CN2CCN(Cc3ccccc3)CC2)c1O [PAC-1] + N=C(N)NC(=N)NCCc1ccccc1 [Phenformin] (partner 250 µM)
In short: as §1

Cell Line	relative viability (BMX-IN-1 + Palbociclib; first compound 0.02 µM)	relative viability (BMX-IN-1 + Palbociclib; first compound 0.2 µM)	relative viability (BMX-IN-1 + Palbociclib; first compound 0.6325 µM)	relative viability (BMX-IN-1 + Palbociclib; first compound 2 µM)	relative viability (Ibrutinib + Tozasertib; first compound 0.005 µM)	relative viability (Ibrutinib + Tozasertib; first compound 0.01581 µM)	relative viability (Ibrutinib + Tozasertib; first compound 0.05 µM)	relative viability (Ibrutinib + Tozasertib; first compound 0.1581 µM)	relative viability (Ibrutinib + Tozasertib; first compound 0.5 µM)	relative viability (Ibrutinib + Vorinostat; first compound 0.005 µM)	relative viability (Ibrutinib + Vorinostat; first compound 0.01581 µM)	relative viability (Ibrutinib + Vorinostat; first compound 0.05 µM)	relative viability (Ibrutinib + Vorinostat; first compound 0.1581 µM)	relative viability (Ibrutinib + Vorinostat; first compound 0.5 µM)	relative viability (PAC-1 + Phenformin; first compound 0.02 µM)	relative viability (PAC-1 + Phenformin; first compound 0.06325 µM)	relative viability (PAC-1 + Phenformin; first compound 0.2 µM)	relative viability (PAC-1 + Phenformin; first compound 2 µM)
HOP-62	0.53	0.543	0.48	0.471	0.447	0.408	0.467	0.403	0.473	0.529	0.701	0.557	0.778	0.71	0.692	0.541	0.585	0.647
IA-LM	–	–	–	–	–	–	–	–	–	1.04	0.864	0.918	–	0.822	–	–	–	–
LC-2-ad	0.498	0.574	0.543	0.509	0.497	0.413	0.388	0.449	0.382	0.74	0.665	0.706	0.802	0.775	0.609	0.654	0.573	0.512
LCLC-97TM1	0.247	0.3	0.227	0.217	0.601	0.426	0.216	0.241	0.224	0.702	0.798	0.718	0.897	0.691	0.507	0.456	0.424	0.427
LCLC-103H	0.475	0.532	0.479	0.412	0.493	0.495	0.531	0.527	0.439	0.776	0.878	0.777	0.782	0.754	0.347	0.322	0.365	0.341
LK-2	1.1	0.75	0.704	0.895	–	0.165	0.185	0.168	0.157	0.236	0.234	0.266	0.293	0.177	0.258	0.479	0.381	0.559
LOU-NH91	–	0.541	0.488	0.546	0.699	0.582	0.581	0.648	0.488	0.818	0.782	0.749	0.88	0.684	0.713	0.695	0.668	0.798
LU99A	0.45	0.428	0.421	0.411	0.264	0.279	0.285	0.258	0.278	0.369	0.512	0.486	0.564	0.439	0.824	0.761	0.908	0.874
LXF-289	0.65	0.615	0.639	0.588	0.22	0.192	0.164	0.248	0.197	0.943	0.798	0.695	0.796	0.749	0.52	0.53	0.501	0.511
NCI-H23	0.536	0.526	0.555	0.47	0.34	0.361	0.455	0.335	0.382	0.467	0.527	0.514	0.605	0.594	0.788	0.814	0.713	0.815
NCI-H322M	0.531	0.484	0.478	0.445	0.426	0.459	0.415	0.474	0.354	0.74	0.915	0.79	0.571	0.802	0.716	0.819	0.776	0.762
NCI-H358	0.129	0.138	0.147	0.122	0.103	–	0.0879	0.12	0.0917	0.606	0.598	–	0.809	0.283	0.305	0.314	0.269	0.374
NCI-H441	0.199	0.205	0.234	0.21	0.596	0.64	0.801	0.73	0.809	0.789	0.694	1.05	0.823	0.919	0.881	0.993	0.705	0.752
NCI-H460	0.131	0.195	0.213	0.149	0.716	0.321	0.519	0.409	0.494	0.855	0.667	0.695	0.794	0.781	0.503	0.528	0.483	0.575
NCI-H520	0.254	0.218	0.218	0.219	0.428	0.341	0.427	0.381	0.39	0.821	0.665	0.715	0.757	0.719	0.418	0.685	0.462	0.6
NCI-H522	0.841	1.14	1.02	0.86	0.503	0.521	0.476	0.55	0.46	0.848	0.764	–	0.808	0.815	0.78	0.662	0.693	0.631
NCI-H596	–	–	–	–	–	0.922	0.858	0.943	0.722	0.468	0.628	0.501	0.57	0.572	0.739	1.03	0.783	0.785
NCI-H1563	–	–	–	–	–	–	–	–	–	–	–	–	–	–	0.655	0.679	0.663	0.66
NCI-H1623	–	–	–	–	0.44	0.407	0.301	0.451	0.201	–	–	–	–	–	0.6	0.565	0.592	0.602
NCI-H1648	0.251	0.256	0.286	0.31	0.549	0.368	0.467	0.537	0.358	0.423	0.441	0.402	0.31	0.343	–	–	–	–
NCI-H1792	–	0.64	1.26	0.613	–	–	–	–	–	–	–	–	–	–	0.298	0.257	0.293	0.24

— the supplement of paper PMC10307832
